The target in the assay is GDP-bound KRAS protein (aa 1-169), containing both G12C and C118A amino acid substitutions (Homo sapiens, UniProt P01116, C118A/G12C). As to the kind of experiment: Coupled nucleotide exchange assay (SOS-mediated, AlphaScreen). The class given is biochemical. Particulars: 5 min compound pre-incubation. On the technique in general: Alpha assays give light when donor and acceptor beads are brought close together.
Sequence of GDP-bound KRAS protein (aa 1-169), containing both G12C and C118A amino acid substitutions (P01116 1-169 isoform P01116-2 G12C/C118A): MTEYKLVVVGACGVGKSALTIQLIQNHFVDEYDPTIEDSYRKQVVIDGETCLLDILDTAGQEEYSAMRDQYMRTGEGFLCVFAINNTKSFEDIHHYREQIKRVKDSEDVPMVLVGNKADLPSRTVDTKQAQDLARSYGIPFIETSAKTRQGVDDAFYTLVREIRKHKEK
Turning to `C=CC(=O)N1CCN(c2nc(=O)n(-c3ccccc3C(C)C)c3nc(C4=CCCCC4)c(Cl)cc23)[C@@H](C)C1` (single isomer, unassigned) [Example 54-75-2], the “Coupled exchange IC50 (5 min)” value is listed as 10.6 | nda μM. `C=CC(=O)N1CCN(c2nc(=O)n(-c3ccccc3C(C)C)c3nc(-c4ccc(F)cc4O)c(Cl)cc23)[C@@H](C)C1` (single isomer, unassigned) [Example 54-77-1]: the “Coupled exchange IC50 (5 min)” value is on record as 2.71 | nda μM. Regarding `C=CC(=O)N1CCN(c2nc(=O)n(-c3ccccc3C(C)C)c3nc(-c4cc(F)ccc4O)c(Cl)cc23)[C@@H](C)C1` (single isomer, unassigned) [Example 54-78-1], the “Coupled exchange IC50 (5 min)” value is reported as 7.26 | nda μM. As for `C=CC(=O)N1CCN(c2nc(=O)n(-c3ccccc3C(C)C)c3nc(-c4cc(O)ccc4F)c(Cl)cc23)[C@@H](C)C1` (single isomer, unassigned) [Example 54-88-2], the figure is 1.36 | nda μM; as for `C=CC(=O)N1CCN(c2nc(=O)n(-c3ccccc3C3(C)CC3)c3nc(-c4ccccc4F)c(Cl)cc23)[C@@H](C)C1` (single isomer, unassigned) [Example 54-99-1], 1.52 | nda μM; as for `C=CC(=O)N1CCN(c2nc(=O)n(-c3cccnc3C(C)(C)C)c3nc(-c4c(O)cccc4F)c(Cl)cc23)[C@@H](C)C1` (single isomer, unassigned) [Example 54-103-2], 1.48 | nda μM. On to `C=CC(=O)N1CCN(c2nc(=O)n(-c3c(C(C)C)cccc3N(C)C)c3nc(-c4ccccc4F)c(Cl)cc23)[C@@H](C)C1` (single isomer, unassigned) [Example 54-104-1], for which the “Coupled exchange IC50 (5 min)” value was 0.743 | nda μM. As for `C=CC(=O)N1CCN(c2nc(=O)n(-c3c(OC)ncnc3C(C)C)c3nc(-c4ccccc4F)c(Cl)cc23)[C@@H](C)C1` (single isomer, unassigned) [Example 54-107-1], the “Coupled exchange IC50 (5 min)” value is 0.731 | nda μM. To `C=CC(=O)N1CCN(c2nc(=O)n(-c3cncnc3C(C)(C)C)c3nc(-c4ccccc4F)c(Cl)cc23)[C@@H](C)C1` (single isomer, unassigned) [Example 54-110-1] belongs 7.71 | nda μM; to `C=CC(=O)N1CCN(c2nc(=O)n(-c3cccnc3C(C)(C)C)c3nc(-c4ccccc4F)c(Cl)cc23)[C@@H](C)C1` (single isomer, unassigned) [Example 54-112-2], 5.02 | nda μM; to `C=CC(=O)N1CCN(c2nc(=O)n(-c3c(C)nc(C)nc3C(C)C)c3nc(-c4c(O)cccc4F)c(Cl)cc23)[C@@H](C)C1` (single isomer, unassigned) [Example 55-4-2], 0.642 | nda μM. To `C=CC(=O)N1CCN(c2nc(=O)n(-c3c(C)ccnc3N(C)C)c3nc(-c4ccccc4F)c(Cl)cc23)[C@@H](C)C1` (single isomer, unassigned) [Example 55-7-1] belongs 0.863 | nda μM; to `C=CC(=O)N1CCN(c2nc(=O)n(-c3c(C)ncnc3C(C)C)c3nc(-c4ccccc4F)c(Cl)cc23)[C@@H](C)C1` (single isomer, unassigned) [Example 55-13-1], 0.722 | nda μM. To `C=CC(=O)N1CCN(c2nc(=O)n(-c3c(C)cc(N(C)C)cc3C(C)C)c3nc(-c4ccccc4F)c(Cl)cc23)[C@@H](C)C1` (single isomer, unassigned) [Example 55-16-1] belongs 1.05 | nda μM.

Consider `C=CC(=O)N1CCN(c2nc(=O)n(-c3nccnc3C(C)(C)C)c3nc(-c4c(O)cccc4F)c(Cl)cc23)[C@@H](C)C1` (single isomer, unassigned) [Example 55-23-1], for which the “Coupled exchange IC50 (5 min)” value is reported as 18.55 | nda μM. Regarding `C=CC(=O)N1CCN(c2nc(=O)n(-c3c(O)cccc3C(C)C)c3nc(-c4ccccc4F)c(Cl)cc23)[C@@H](C)C1` (single isomer, unassigned) [Example 55-26-1], the “Coupled exchange IC50 (5 min)” value is on record as 36.9 | nda μM.

(Values after US11090304B2 (Amgen Inc., priority 2018, dated 2021).)
